Measurements published in US8039493B2, “Biaryl sulfonamide derivatives” (Hoffmann-La Roche Inc., priority 2008, dated 2011).

Legend:
[1] = biological target: T1, human LXR beta (Homo sapiens, UniProt P55055); assay: Radioligand binding assay (scintillation proximity), LXR beta-LBD; details: LXR beta-LBD on SPA beads, read-out: LXRbeta Binding IC50
T1 construct: human LXR beta (aa 155 to 460); made in house; host or cells: E. coli BL21 (pLysS)
T1 sequence (P55055 155-460): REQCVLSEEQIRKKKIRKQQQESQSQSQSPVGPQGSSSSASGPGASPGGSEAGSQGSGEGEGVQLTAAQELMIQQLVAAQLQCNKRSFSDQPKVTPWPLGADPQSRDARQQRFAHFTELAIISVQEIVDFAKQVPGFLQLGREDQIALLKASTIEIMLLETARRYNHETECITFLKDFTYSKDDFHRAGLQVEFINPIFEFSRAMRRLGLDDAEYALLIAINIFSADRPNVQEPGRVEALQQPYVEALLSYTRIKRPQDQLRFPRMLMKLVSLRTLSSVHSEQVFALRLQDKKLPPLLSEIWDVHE
Description: (§1) The following tests were carried out in order to determine the activity of the compounds of the present invention. […] Mammalian expression vectors were constructed to express full-length human LXR alpha and LXR beta. […] To accomplish this, the portions of the sequences encoding the LBDs were amplified from the full-length clones by PCR and then subcloned into the plasmid vectors.
(§2) Induction, expression, and purification of LBD proteins were performed in E. coli strain BL21 (pLysS) cells by standard methods (Ref: Current Protocols in Molecular Biology, Wiley Press, edited by Ausubel et al).
(§3) Radioligand Binding Assay
(§4) LXR alpha and LXR beta receptor binding were assayed in buffer consisting of 50 mM HEPES, pH 7.4, 10 mM NaCl, 5 mM MgCl2. For each 96-well reaction, 500 ng of LXRα-LBD or 700 ng of LXR beta-LBD proteins were bound to 80 μg or 40 μg SPA beads respectively, in a final volume of 50 μl by shaking. The resulting slurry was incubated for 1 h at RT and centrifuged for 2 min at 1300×g. The supernatant containing unbound protein was removed, and the semi-dry pellet containing the receptor-coated beads was re-suspended in 50 μl of buffer. Radioligand (eg. 100,000 dpm of (N-(2,2,2-trifluoroethyl)-N-[4-(2,2,2-trifluoro-1-hydroxy-1-trifluoromethylethyl)-phenyl]-benzenesulfonamide)) was added, and the reaction incubated at RT for 1 h in the presence of test compounds, and then scintillation proximity counting was performed. All binding assays were performed in 96-well plates and the amount of bound ligand was measured on a Packard TopCount using OptiPlates (Packard). Dose response curves were measured within a range of concentration from 10^−10 M to 10^−4 M.

[2] = biological target: T2, human LXR alpha (Homo sapiens, UniProt Q13133); assay: Radioligand binding assay (scintillation proximity), LXRα-LBD; details: LXRα-LBD on SPA beads, read-out: LXRalpha Binding IC50
T2 construct: human LXR alpha (aa 164 to 447); made in house; host or cells: E. coli BL21 (pLysS)
T2 sequence (Q13133 164-447): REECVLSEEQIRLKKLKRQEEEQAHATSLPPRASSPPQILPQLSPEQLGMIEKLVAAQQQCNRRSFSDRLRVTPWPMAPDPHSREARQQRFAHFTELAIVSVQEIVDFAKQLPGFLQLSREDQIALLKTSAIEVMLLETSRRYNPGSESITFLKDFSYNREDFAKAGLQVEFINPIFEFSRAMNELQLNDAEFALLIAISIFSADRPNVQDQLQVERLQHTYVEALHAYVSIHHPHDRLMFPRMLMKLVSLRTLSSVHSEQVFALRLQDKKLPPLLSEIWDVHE
Description: as §1, §2, §3, §4

| Structure (SMILES) | IC50 [1] | IC50 [2] |
| --- | --- | --- |
| CS(=O)(=O)c1cccc(-c2ccc(CN(CC3OCCO3)S(=O)(=O)c3ccccc3C(F)(F)F)s2)c1 [Example 39, N-[1,3]Dioxolan-2-ylmethyl-N-[5-(3-methanesulfonyl-phenyl)-thiophen-2-ylmethyl]-2-trifluoromethyl-benzenesulfonamide] | 47 nM | 820 nM |
| CN(Cc1ccc(-c2cccc(S(C)(=O)=O)c2)s1)S(=O)(=O)c1ccccc1C(F)(F)F [Example 27, N-[5-(3-Methanesulfonyl-phenyl)-thiophen-2-ylmethyl]-N-methyl-2-trifluoromethyl-benzenesulfonamide] | 2610 nM | 29200 nM |
| CC(C)S(=O)(=O)N(Cc1ccc(F)cc1)Cc1cccc(-c2cccc(S(C)(=O)=O)c2)c1 [Example 53, Propane-2-sulfonic acid (4-fluoro-benzyl)-(3′-methanesulfonyl-biphenyl-3-ylmethyl)-amide] | 255 nM | 2800 nM |
| CS(=O)(=O)c1cccc(-c2ccc(CN(CC3CC3)S(=O)(=O)c3ccccc3C(F)(F)F)s2)c1 [Example 32, N-Cyclopropylmethyl-N-[5-(3-methanesulfonyl-phenyl)-thiophen-2-ylmethyl]-2-trifluoromethyl-benzenesulfonamide] | 106 nM | 845 nM |
| CS(=O)(=O)c1cccc(-c2ccc(CN(C(=O)c3ccccc3)S(=O)(=O)c3cccc(Cl)c3)s2)c1 [Example 9, N-Benzoyl-3-chloro-N-[5-(3-methanesulfonyl-phenyl)-thiophen-2-ylmethyl]-benzenesulfonamide] | 980 nM | 2140 nM |
| CS(=O)(=O)c1cccc(-c2ccc(CN(Cc3ccccc3F)S(=O)(=O)c3ccccc3C(F)(F)F)s2)c1 [Example 33, N-(2-Fluoro-benzyl)-N-[5-(3-methanesulfonyl-phenyl)-thiophen-2-ylmethyl]-2-trifluoromethyl-benzenesulfonamide] | 6.6 nM | 13.5 nM |
| CC(C)CN(Cc1ccc(-c2cccc(S(C)(=O)=O)c2)s1)S(=O)(=O)CC1CCCCC1 [Example 58, C-Cyclohexyl-N-isobutyl-N-[5-(3-methanesulfonyl-phenyl)-thiophen-2-ylmethyl]-methanesulfonamide] | 1340 nM | 31700 nM |
| CCCCS(=O)(=O)N(Cc1ccc(-c2cccc(S(C)(=O)=O)c2)s1)CC(C)C [Example 25, Butane-1-sulfonic acid isobutyl-[5-(3-methanesulfonyl-phenyl)-thiophen-2-ylmethyl]-amide] | 80 nM | 2750 nM |
| CC(C)CN(Cc1ccc(-c2cccc(S(C)(=O)=O)c2)s1)S(C)(=O)=O [Example 15, N-Isobutyl-N-[5-(3-methanesulfonyl-phenyl)-thiophen-2-ylmethyl]-methanesulfonamide] | 7060 nM | 48700 nM |
| CS(=O)(=O)c1cccc(-c2ccc(CN(Cc3ccccc3)S(=O)(=O)c3ccccc3C(F)(F)F)s2)c1 [Example 1, N-Benzyl-N-[5-(3-methanesulfonyl-phenyl)-thiophen-2-ylmethyl]-2-trifluoromethyl-benzenesulfonamide] | 165 nM | 205 nM |
| Cc1noc(C)c1CN(Cc1ccc(-c2cccc(S(C)(=O)=O)c2)s1)S(=O)(=O)c1ccccc1C(F)(F)F [Example 34, N-(3,5-Dimethyl-isoxazol-4-ylmethyl)-N-[5-(3-methanesulfonyl-phenyl)-thiophen-2-ylmethyl]-2-trifluoromethyl-benzenesulfonamide] | 83 nM | 60.5 nM |
| CS(=O)(=O)Nc1cccc(-c2ccc(CN(Cc3ccccc3)S(=O)(=O)c3ccccc3C(F)(F)F)s2)c1 [Example 2, N-Benzyl-N-[5-(3-methanesulfonylamino-phenyl)-thiophen-2-ylmethyl]-2-trifluoromethyl-benzenesulfonamide] | 126 nM | 170 nM |

More lines, now with the values ahead:

| IC50 [1] | IC50 [2] | Structure (SMILES) |
| --- | --- | --- |
| 470 nM | 7860 nM | CC(C)N(Cc1ccc(-c2cccc(S(C)(=O)=O)c2)s1)S(=O)(=O)c1ccccc1C(F)(F)F [Example 30, N-Isopropyl-N-[5-(3-methanesulfonyl-phenyl)-thiophen-2-ylmethyl]-2-trifluoromethyl-benzenesulfonamide] |
| 83 nM | 2530 nM | CC(C)CN(Cc1cc(-c2cncc(S(C)(=O)=O)c2)cs1)S(=O)(=O)c1ccccc1Cl [Example 55, 2-Chloro-N-isobutyl-N-[4-(5-methanesulfonyl-pyridin-3-yl)-thiophen-2-ylmethyl]-benzenesulfonamide] |
| 116 nM | 975 nM | COCCN(Cc1ccc(-c2cccc(S(C)(=O)=O)c2)s1)S(=O)(=O)c1ccccc1C(F)(F)F [Example 35, N-[5-(3-Methanesulfonyl-phenyl)-thiophen-2-ylmethyl]-N-(2-methoxy-ethyl)-2-trifluoromethyl-benzenesulfonamide] |
| 98 nM | 15900 nM | CC(C)CN(Cc1ccc(-c2cccc(S(C)(=O)=O)c2)s1)S(=O)(=O)c1ccccc1C#N [Example 26, 2-Cyano-N-isobutyl-N-[5-(3-methanesulfonyl-phenyl)-thiophen-2-ylmethyl]-benzenesulfonamide] |
| 805 nM | 2270 nM | CC(C)CN(Cc1cccc(-c2cccc(S(C)(=O)=O)c2)c1)S(=O)(=O)C(C)C [Example 50, Propane-2-sulfonic acid isobutyl-(3′-methanesulfonyl-biphenyl-3-ylmethyl)-amide] |
| 85 nM | 1460 nM | CC(C)CN(Cc1ccc(-c2cccc(S(C)(=O)=O)c2)s1)S(=O)(=O)c1ccccc1C(F)(F)F [Example 31, N-Isobutyl-N-[5-(3-methanesulfonyl-phenyl)-thiophen-2-ylmethyl]-2-trifluoromethyl-benzenesulfonamide] |
| 140 nM | 605 nM | CC(C)CN(Cc1ccc(-c2cccc(S(C)(=O)=O)c2)s1)S(=O)(=O)c1cccs1 [Example 21, Thiophene-2-sulfonic acid isobutyl-[5-(3-methanesulfonyl-phenyl)-thiophen-2-ylmethyl]-amide] |
| 59 nM | 2630 nM | COC(=O)c1ccccc1S(=O)(=O)N(Cc1ccc(-c2cccc(S(C)(=O)=O)c2)s1)CC(C)C [Example 19, 2-{Isobutyl-[5-(3-methanesulfonyl-phenyl)-thiophen-2-ylmethyl]-sulfamoyl}-benzoic acid methyl ester] |
| 2.3 nM | 425 nM | CC(C)CN(Cc1ccc(-c2cccc(S(C)(=O)=O)c2)cn1)S(=O)(=O)c1ccccc1Cl [Example 45, 2-Chloro-N-isobutyl-N-[5-(3-methanesulfonyl-phenyl)-pyridin-2-ylmethyl]-benzenesulfonamide] |
| 7.4 nM | 84.5 nM | CC(C)CN(Cc1cc(-c2cccc(S(N)(=O)=O)c2)cs1)S(=O)(=O)c1ccccc1Cl [Example 54, 2-Chloro-N-isobutyl-N-[4-(3-aminosulfonyl-phenyl)-thiophen-2-ylmethyl]-benzenesulfonamide] |
| 28.5 nM | 165 nM | Cc1ccc(F)cc1S(=O)(=O)N(Cc1ccc(-c2cccc(S(C)(=O)=O)c2)s1)CC(C)C [Example 24, 5-Fluoro-N-isobutyl-N-[5-(3-methanesulfonyl-phenyl)-thiophen-2-ylmethyl]-2-methyl-benzenesulfonamide] |
